{"source": "ChEMBL document CHEMBL1687754", "about": "“Chip calorimetry for fast and reliable evaluation of bactericidal and bacteriostatic treatments of biofilms” (2010)", "key": {"Pseudomonas putida [1]": {"system": "Pseudomonas putida", "assay": "Inactivation of Pseudomonas putida PAW340 biofilms assessed as decrease in heat production at 0.5 mM by Chip calorimetry", "type": "functional, organism-based"}, "Pseudomonas putida [2]": {"system": "Pseudomonas putida", "assay": "Inactivation of Pseudomonas putida PAW340 biofilms assessed as decrease in ATP content at 0.5 mM by Chip calorimetry", "type": "functional, organism-based"}, "Pseudomonas putida [3]": {"system": "Pseudomonas putida", "assay": "Inactivation of Pseudomonas putida PAW340 biofilms assessed as decrease in heat production at 0.5 mM within 1 hr by Chip calorimetry", "type": "functional", "parameters": "scale not given: the % may be the effect or the level left"}, "Pseudomonas putida [4]": {"system": "Pseudomonas putida", "assay": "Inactivation of Pseudomonas putida PAW340 biofilms assessed as decrease in heat production by Chip calorimetry", "type": "functional, organism-based"}, "Pseudomonas putida [5]": {"system": "Pseudomonas putida", "assay": "Antibacterial activity against Pseudomonas putida PAW340 assessed as decrease in bacterial count at 20 to 150 ug/ml", "type": "functional, organism-based"}, "Pseudomonas putida [6]": {"system": "Pseudomonas putida", "assay": "Effect on Pseudomonas putida PAW340 biofilms assessed as heat production at 70 ug/ml by Chip calorimetry", "type": "functional"}, "Pseudomonas putida [7]": {"system": "Pseudomonas putida", "assay": "Effect on Pseudomonas putida PAW340 biofilms assessed as heat production at 3 ug/ml by Chip calorimetry", "type": "functional"}, "Pseudomonas putida [8]": {"system": "Pseudomonas putida", "assay": "Effect on Pseudomonas putida PAW340 biofilms assessed as heat production at 250 ug/ml by Chip calorimetry", "type": "functional"}, "Escherichia coli": {"system": "Escherichia coli", "assay": "Antibacterial activity against Escherichia coli", "type": "functional"}, "Klebsiella pneumoniae": {"system": "Klebsiella pneumoniae", "assay": "Antibacterial activity against Klebsiella pneumoniae", "type": "functional"}, "Staphylococcus aureus": {"system": "Staphylococcus aureus", "assay": "Antibacterial activity against Staphylococcus aureus", "type": "functional"}, "Pseudomonas aeruginosa": {"system": "Pseudomonas aeruginosa", "assay": "Antibacterial activity against Pseudomonas aeruginosa", "type": "functional"}, "Pseudomonas putida [9]": {"system": "Pseudomonas putida", "assay": "Inactivation of Pseudomonas putida PAW340 biofilms assessed as decrease in heat production at 3 to 30 ug/ml by Chip calorimetry", "type": "functional, organism-based", "conditions": "TDE = time-dependent effect"}, "Neisseria gonorrhoeae": {"system": "Neisseria gonorrhoeae", "assay": "Antibacterial activity against Neisseria gonorrhoeae", "type": "functional"}}, "note": "Active and inactive are the calls of the source. No cut-off for these calls is given here."}
{"smiles": "O=[N+]([O-])c1ccc(O)c([N+](=O)[O-])c1", "note": "[2,4-DINITROPHENOL]", "values": [{"measurement": "Activity", "setting": "Pseudomonas putida [1]", "value": "Active"}, {"measurement": "Activity", "setting": "Pseudomonas putida [2]", "value": "Active"}, {"measurement": "Activity", "setting": "Pseudomonas putida [3]", "value": 90, "unit": "%"}]}
{"smiles": "O=C(O)c1cn(C2CC2)c2cc(N3CCNCC3)c(F)cc2c1=O", "values": [{"measurement": "Activity", "setting": "Pseudomonas putida [4]", "value": "Dose-dependent effect"}, {"measurement": "Activity", "setting": "Pseudomonas putida [5]", "value": "Active"}]}
{"smiles": "CN(C)[C@@H]1C(O)=C(C(N)=O)C(=O)[C@@]2(O)C(O)=C3C(=O)c4c(O)cccc4[C@@](C)(O)[C@H]3C[C@@H]12", "note": "[TETRACYCLINE]", "values": [{"measurement": "Activity", "setting": "Pseudomonas putida [6]", "value": 118, "unit": "%"}, {"measurement": "Activity", "setting": "Pseudomonas putida [7]", "value": 100, "unit": "%"}, {"measurement": "Activity", "setting": "Pseudomonas putida [8]", "value": 100, "unit": "%"}, {"measurement": "MIC", "setting": "Escherichia coli", "value": 0.07, "unit": "µg/mL"}, {"measurement": "MIC", "setting": "Klebsiella pneumoniae", "value": 2.5, "unit": "µg/mL"}, {"measurement": "MIC", "setting": "Staphylococcus aureus", "value": 0.15, "unit": "µg/mL"}, {"measurement": "MIC", "setting": "Pseudomonas aeruginosa", "value": 6.25, "unit": "µg/mL"}]}
{"smiles": "NC[C@H]1O[C@H](O[C@H]2[C@H](O)[C@@H](O[C@H]3O[C@H](CO)[C@@H](O)[C@H](N)[C@H]3O)[C@H](N)C[C@@H]2N)[C@H](O)[C@@H](O)[C@@H]1O", "note": "[KANAMYCIN]", "values": [{"measurement": "Activity", "setting": "Pseudomonas putida [9]", "value": "tde"}, {"measurement": "MIC", "setting": "Neisseria gonorrhoeae", "value": 2, "unit": "µg/mL"}]}
